The CheMixHub viscosity set

Assay: xn = mol fraction of the nth substance listed

CN1CCCC1=O + O
Settings	viscosity [mPa·s]
293.15 K, 101 kPa, x1 = 0.6997	2.865
298.15 K, 101 kPa, x1 = 0.02	1.2
298.15 K, 101 kPa, x1 = 0.0505	1.809
298.15 K, 101 kPa, x1 = 0.0985	2.79
298.15 K, 101 kPa, x1 = 0.0997	2.778
298.15 K, 101 kPa, x1 = 0.1202	3.198
298.15 K, 101 kPa, x1 = 0.1503	3.914
298.15 K, 101 kPa, x1 = 0.1702	4.125
298.15 K, 101 kPa, x1 = 0.1881	4.44
298.15 K, 101 kPa, x1 = 0.1999	4.578
298.15 K, 101 kPa, x1 = 0.2205	4.804
298.15 K, 101 kPa, x1 = 0.2496	5.035
298.15 K, 101 kPa, x1 = 0.2697	5.12
298.15 K, 101 kPa, x1 = 0.2937	5.154
298.15 K, 101 kPa, x1 = 0.3053	5.1
298.15 K, 101 kPa, x1 = 0.3496	5.006
298.15 K, 101 kPa, x1 = 0.3959	4.59
298.15 K, 101 kPa, x1 = 0.3999	4.679
298.15 K, 101 kPa, x1 = 0.45	4.31
298.15 K, 101 kPa, x1 = 0.4954	3.77
298.15 K, 101 kPa, x1 = 0.4999	3.909
298.15 K, 101 kPa, x1 = 0.5941	3.07
298.15 K, 101 kPa, x1 = 0.6002	3.214
298.15 K, 101 kPa, x1 = 0.6917	2.55
298.15 K, 101 kPa, x1 = 0.7	2.676
298.15 K, 101 kPa, x1 = 0.786	2.18
298.15 K, 101 kPa, x1 = 0.7997	2.299
298.15 K, 101 kPa, x1 = 0.8859	1.9
298.15 K, 101 kPa, x1 = 0.8962	2.023
298.15 K, 101 kPa, x1 = 0.9498	1.908
298.15 K, 101.15 kPa, x1 = 0.0501	1.74
298.15 K, 101.15 kPa, x1 = 0.0701	2.137
298.15 K, 101.15 kPa, x1 = 0.1001	2.762
298.15 K, 101.15 kPa, x1 = 0.2004	4.555
298.15 K, 101.15 kPa, x1 = 0.3004	5.062
298.15 K, 101.15 kPa, x1 = 0.4012	4.505
298.15 K, 101.15 kPa, x1 = 0.503	3.729
298.15 K, 101.15 kPa, x1 = 0.5937	3.075
298.15 K, 101.15 kPa, x1 = 0.7023	2.503
298.15 K, 101.15 kPa, x1 = 0.9006	1.836
298.16 K, 101 kPa, x2 = 0.0836	1.84
298.16 K, 101 kPa, x2 = 0.1794	2.14
298.16 K, 101 kPa, x2 = 0.3006	2.72
298.16 K, 101 kPa, x2 = 0.4221	3.52
298.16 K, 101 kPa, x2 = 0.5466	4.45
298.16 K, 101 kPa, x2 = 0.6595	5.05
298.16 K, 101 kPa, x2 = 0.6861	5.04
298.16 K, 101 kPa, x2 = 0.7608	4.66
298.16 K, 101 kPa, x2 = 0.7976	4.23
298.16 K, 101 kPa, x2 = 0.8599	3.2
303.15 K, 101 kPa, x1 = 0.3001	4.365
303.15 K, 101 kPa, x1 = 0.899	1.705
308.15 K, 101 kPa, x1 = 0.02	0.9403
308.15 K, 101 kPa, x1 = 0.0505	1.375
308.15 K, 101 kPa, x1 = 0.1202	2.303
308.15 K, 101 kPa, x1 = 0.1702	2.895
308.15 K, 101 kPa, x1 = 0.1999	3.179
308.15 K, 101 kPa, x1 = 0.2205	3.323
308.15 K, 101 kPa, x1 = 0.2496	3.478
308.15 K, 101 kPa, x1 = 0.2697	3.539
308.15 K, 101 kPa, x1 = 0.2937	3.574
308.15 K, 101 kPa, x1 = 0.3202	3.591
308.15 K, 101 kPa, x1 = 0.3496	3.518
308.15 K, 101 kPa, x1 = 0.3999	3.351
308.15 K, 101 kPa, x1 = 0.45	3.147
308.15 K, 101 kPa, x1 = 0.4999	2.912
308.15 K, 101 kPa, x1 = 0.6002	2.487
308.15 K, 101 kPa, x1 = 0.7	2.138
308.15 K, 101 kPa, x1 = 0.7997	1.883
308.15 K, 101 kPa, x1 = 0.8962	1.691
313.15 K, 101.15 kPa, x1 = 0.0501	1.178
313.15 K, 101.15 kPa, x1 = 0.0701	1.402
313.15 K, 101.15 kPa, x1 = 0.1001	1.744
313.15 K, 101.15 kPa, x1 = 0.2004	2.684
313.15 K, 101.15 kPa, x1 = 0.3004	2.975
313.15 K, 101.15 kPa, x1 = 0.4012	2.777
313.15 K, 101.15 kPa, x1 = 0.503	2.44
313.15 K, 101.15 kPa, x1 = 0.5937	2.125
313.15 K, 101.15 kPa, x1 = 0.7023	1.818
313.15 K, 101.15 kPa, x1 = 0.8066	1.585
313.15 K, 101.15 kPa, x1 = 0.9006	1.43
318.15 K, 101 kPa, x1 = 0.0997	1.548
318.15 K, 101 kPa, x1 = 0.1202	1.73
318.15 K, 101 kPa, x1 = 0.1503	2.039
318.15 K, 101 kPa, x1 = 0.1702	2.13
318.15 K, 101 kPa, x1 = 0.1999	2.32
318.15 K, 101 kPa, x1 = 0.2205	2.417
318.15 K, 101 kPa, x1 = 0.2496	2.527
318.15 K, 101 kPa, x1 = 0.2697	2.572
318.15 K, 101 kPa, x1 = 0.2937	2.603
318.15 K, 101 kPa, x1 = 0.3202	2.623
318.15 K, 101 kPa, x1 = 0.3496	2.589
318.15 K, 101 kPa, x1 = 0.3999	2.503
318.15 K, 101 kPa, x1 = 0.45	2.387
318.15 K, 101 kPa, x1 = 0.4999	2.245
318.15 K, 101 kPa, x1 = 0.6002	1.977
318.15 K, 101 kPa, x1 = 0.7997	1.571
318.15 K, 101 kPa, x1 = 0.9498	1.375
323.15 K, 101 kPa, x1 = 0.6997	1.485
323.15 K, 101.15 kPa, x1 = 0.0501	0.942
323.15 K, 101.15 kPa, x1 = 0.0701	1.106
323.15 K, 101.15 kPa, x1 = 0.2004	1.995
323.15 K, 101.15 kPa, x1 = 0.4012	2.116
323.15 K, 101.15 kPa, x1 = 0.503	1.935
323.15 K, 101.15 kPa, x1 = 0.7023	1.509
323.15 K, 101.15 kPa, x1 = 0.8066	1.343
